Tested on: influenza virus strains resistant to remantadine
Type: in vivo
Conditions: chick embryos, 1 mg/embryo

CC1=C(C(=O)OC2CC3CCC2(C)C3(C)C)C2Nc3ccccc3N(C)C2O1 (stereo not shown) [compound 1a, isobornyl ester of 2,9-dimethyl-3a,4,9,9a-tetrahydrofuro [2,3-b] quinoxaline-3-carboxylic acid]
sensitivity of strains resistant or only slightly sensitive to remantadine (in words): Some virus strains that are resistant or only slightly sensitive to remantadine were sensitive to the proposed compound 1a

— patent publication US5166348A, “Bornyl and isobornyl esters of carboxylic acids of condensed tetrahydroquinoxalines” (Uralsky politekhnichesky institut, priority 1989, dated 1992)
